The source of these data is patent US20120131849A1, “METHOD FOR STORAGE OF SEEDS” (priority 2009, published 2012).

The test system of the experiment is seeds of Eustoma grandiflorum “F1 Mellow Violet”. The experiment in a line: Germination rate test after storage of seeds in oily substance. It counts as in vivo. The method, then: After a predetermined amount of culture soil (Metro-Mix350, manufactured by Scotts) was filled into a cell tray, 100 seeds were sown, and water sprinkling was performed as necessary. With regard to the light conditions, suitable conditions for each seed type were adopted. After sowing, the number of germinated seeds was measured over time, and the number of germinated seeds with respect to the 100 seeds was calculated as a germination rate (%).
The germination rate (%) obtained 10 days after sowing was particularly evaluated as germination vigor (%). The germination vigor is a measure of germination speed or whether germination is uniform, and higher germination vigor values mean faster and more uniform germination. In the case of seeds of a plant that takes long time to germinate, the number of days after sowing was changed as appropriate to obtain the germination vigor.
The germination rate (%) obtained 14 days after sowing was particularly evaluated as the final germination rate (%). In the case of seeds of a plant that takes long time to germinate, the number of days after sowing was changed as appropriate to obtain the final germination rate. […]
First, 0.01 g of seeds of Eustoma grandiflorum “F1 Mellow Violet” was placed in each of 1.5 mL test tubes. Subsequently, 1.5 mL of a medium-chain triglyceride was gently poured into each test tube, which was then capped. The seeds were completely immersed in the medium-chain triglyceride. The test tubes were stored at 4° C. or 25° C. in darkness for 6 months, 18 months, or 36 months, and afterward, the seeds were removed from the test tubes, and a germination rate test was performed. A germination rate test for Eustoma grandiflorum “F1 Mellow Violet” seeds immediately after purchasing was also performed at the same time.

The structures appear in SMILES notation.

For `CCCC(=O)O` [Example 10, butanoic acid], the “Germination rate (%) 10 days (germination vigor)” value (“Germination rate (%) 10 days” below) reads like this: (Stored at 4° C., 6 months) 94%; (Stored at 4° C., 18 months) 95%; (Stored at 4° C., 36 months) 95%; (Stored at 25° C., 6 months) 95%; (Stored at 25° C., 18 months) 93%; (Stored at 25° C., 36 months) 92%. For the same compound, the “Germination rate (%) 14 days (final germination rate)” value (shortened to “Germination rate (%) 14 days”) (Stored at 4° C., 6 months) stood at 94%; the “Germination rate (%) 14 days” value (Stored at 4° C., 18 months) is on record as 95%; the “Germination rate (%) 14 days” value (Stored at 4° C., 36 months) worked out at 96%; the “Germination rate (%) 14 days” value (Stored at 25° C., 6 months) stood at 96%; the “Germination rate (%) 14 days” value (Stored at 25° C., 18 months) stood at 96%; the “Germination rate (%) 14 days” value (Stored at 25° C., 36 months) came out at 95%.
As for `CCCCCCCC(=O)O` [Example 11, octanoic acid], the “Germination rate (%) 10 days” value (Stored at 4° C., 6 months) was 93%; the “Germination rate (%) 10 days” value (Stored at 4° C., 18 months) is recorded as 96%; the “Germination rate (%) 10 days” value (Stored at 4° C., 36 months) is on record as 95%; the “Germination rate (%) 10 days” value (Stored at 25° C., 6 months) stood at 93%; the “Germination rate (%) 10 days” value (Stored at 25° C., 18 months) amounted to 91%; the “Germination rate (%) 10 days” value (Stored at 25° C., 36 months) turned out to be 90%. For the same compound, the “Germination rate (%) 14 days” value by setting is: (Stored at 4° C., 6 months) 93%; (Stored at 4° C., 18 months) 96%; (Stored at 4° C., 36 months) 95%; (Stored at 25° C., 6 months) 93%; (Stored at 25° C., 18 months) 93%; (Stored at 25° C., 36 months) 93%.
Turning to `CCCCCCCCCCCO` [Example 17, undecyl alcohol], the “Germination rate (%) 10 days” value by setting is: (Stored at 4° C., 6 months) 94%; (Stored at 4° C., 18 months) 94%; (Stored at 4° C., 36 months) 90%; (Stored at 25° C., 6 months) 94%; (Stored at 25° C., 18 months) 95%; (Stored at 25° C., 36 months) 89%. The “Germination rate (%) 14 days” value turned out to be 96% (Stored at 4° C., 6 months); 94% (Stored at 4° C., 18 months); 92% (Stored at 4° C., 36 months); 95% (Stored at 25° C., 6 months); 94% (Stored at 25° C., 18 months); 92% (Stored at 25° C., 36 months).
